Assay results published in US9422277B2, “Tricyclic substituted thiadiazine dioxide compounds as BACE inhibitors, compositions and their use” (Merck Sharp & Dohme Corp., priority 2012, dated 2016).
pKi: −log10 of the molar value.

Legend:
[1] = target: soluble human BACE1 catalytic domain (Homo sapiens (Human), UniProt P56817); test: BACE1 HTRF FRET Assay; format: biochemical; details: Ki calculated from IC50 using the Cheng-Prusoff equation
Source text: A homogeneous time-resolved FRET assay can be used to determine IC50 values for inhibitors of the soluble human BACE1 catalytic domain. This assay monitors the increase of 620 nm fluorescence that resulted from BACE1 cleavage of an APPswedish APP^swe mutant peptide FRET substrate (QSY7-[…]-Europium-amide). This substrate contains an N-terminal QSY7 moiety that serves as a quencher of the C-terminal Europium fluorophore (620 nm Em). In the absence of enzyme activity, 620 nm fluorescence is low in the assay and increased linearly over 3 hours in the presence of uninhibited BACE1 enzyme Inhibition of BACE1 cleavage of the QSY7-APP^swe-Eu substrate by inhibitors is manifested as a suppression of 620 nm fluorescence.
Reactions are initiated by addition of 10 μl of 600 nM QSY7-APP^swe-Eu substrate (200 nM final) to give a final reaction volume of 30 μl in a 384 well Nunc HTRF plate. The reactions are incubated at 30° C. for 1.5 hours. The 620 nm fluorescence is then read on a Rubystar HTRF plate reader (BMG Labtechnologies) using a 50 millisecond delay followed by a 400 millisecond acquisition time window Inhibitor IC50 values are derived from non-linear regression analysis of concentration response curves.

[2] = target: purified human autoBACE-2 (Homo sapiens (Human), UniProt Q9Y5Z0); test: BACE-2 Assay (BACE-HTRF assay); format: biochemical; details: Ki calculated from IC50 using the Cheng-Prusoff equation; read-out: BACE2 Ki
Experimental: Inhibitor IC50s at purified human autoBACE-2 are determined in a time-resolved endpoint proteolysis assay that measures hydrolysis of the QSY7-[…]-Eu-amide FRET peptide substrate (BACE-HTRF assay). BACE-mediated hydrolysis of this peptide results in an increase in relative fluorescence (RFU) at 620 nm after excitation with 320 nm light Inhibitor compounds, prepared at 3× the desired final concentration in 1×BACE assay buffer (20 mM sodium acetate pH 5.0, 10% glycerol, 0.1% Brij-35) supplemented with 7.5% DMSO are pre-incubated with an equal volume of autoBACE-2 enzyme diluted in 1×BACE assay buffer (final enzyme concentration 1 nM) in black 384-well NUNC plates for 30 minutes at 30° C. […] DMSO is present at 5% final concentration in the assay. Following laser excitation of sample wells at 320 nm, the fluorescence signal at 620 nm is collected for 400 ms following a 50 μs delay on a RUBYstar HTRF plate reader (BMG Labtechnologies). Raw RFU data is normalized to maximum (1.0 nM BACE/DMSO) and minimum (no enzyme/DMSO) RFU values. IC50s are determined by nonlinear regression analysis (sigmoidal dose response, variable slope) of percent inhibition data with minimum and maximum values set to 0 and 100 percent respectively. Similar IC50s are obtained when using raw RFU data. The Ki values are calculated from the IC50 using the Cheng-Prusoff equation.

Sequence of soluble human BACE1 catalytic domain (P56817 75-416): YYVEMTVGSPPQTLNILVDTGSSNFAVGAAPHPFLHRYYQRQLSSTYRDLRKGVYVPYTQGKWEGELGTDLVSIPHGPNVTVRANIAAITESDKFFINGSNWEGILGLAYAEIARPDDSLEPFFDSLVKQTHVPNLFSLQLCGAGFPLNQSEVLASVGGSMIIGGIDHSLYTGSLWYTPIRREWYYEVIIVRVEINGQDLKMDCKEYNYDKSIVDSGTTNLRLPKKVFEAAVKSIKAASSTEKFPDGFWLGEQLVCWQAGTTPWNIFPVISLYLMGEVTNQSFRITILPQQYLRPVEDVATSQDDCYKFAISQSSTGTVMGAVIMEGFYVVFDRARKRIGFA
Sequence of purified human autoBACE-2 (Q9Y5Z0 63-473 limits assumed): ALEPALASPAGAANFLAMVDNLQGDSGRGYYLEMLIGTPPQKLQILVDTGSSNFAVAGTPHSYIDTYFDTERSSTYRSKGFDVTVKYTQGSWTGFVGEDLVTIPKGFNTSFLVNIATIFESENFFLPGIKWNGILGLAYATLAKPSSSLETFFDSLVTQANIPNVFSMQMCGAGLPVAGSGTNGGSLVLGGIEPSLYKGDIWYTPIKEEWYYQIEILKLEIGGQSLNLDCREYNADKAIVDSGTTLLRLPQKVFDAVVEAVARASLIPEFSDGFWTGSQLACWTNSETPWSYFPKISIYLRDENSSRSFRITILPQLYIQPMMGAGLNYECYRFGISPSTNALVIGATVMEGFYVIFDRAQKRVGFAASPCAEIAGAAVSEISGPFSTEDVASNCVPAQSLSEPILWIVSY

Row | pKi [1] | pKi [2] | Compound
1 | 8.68 | 9.16 | CN1C(=N)N[C@](C)(c2sc(-c3ccc(-c4ccccc4)[nH]3)cc2Cl)CS1(=O)=O [Example 1]
2 | 6.95 | 7.83 | CN1C(=N)N[C@](C)(c2sc(-c3ncc(-c4ccccc4)[nH]3)cc2Cl)CS1(=O)=O [Example 2]
3 | 6.33 | 7.06 | CN1C(=N)N[C@](C)(c2sc(-c3ncc(-c4ccccn4)[nH]3)cc2Cl)CS1(=O)=O [Example 3]
4 | 5.04 | 5.51 | CN1C(=N)N[C@](C)(c2sc(-c3[nH]cnc3-c3ccccc3)cc2Cl)CS1(=O)=O [Example 4]
5 | 5.70 | 6.55 | CN1C(=N)N[C@](C)(c2sc(-c3cn(-c4ccccc4)nn3)cc2Cl)CS1(=O)=O [Example 5]
6 | 6.57 | 7.16 | CN1C(=N)N[C@](C)(c2sc(-c3ccc(C4=NCCO4)[nH]3)cc2Cl)CS1(=O)=O [Example 6]
7 | 7.06 | 7.46 | CC1CN=C(c2ccc(-c3cc(Cl)c([C@]4(C)CS(=O)(=O)N(C)C(=N)N4)s3)[nH]2)O1 (stereo partly shown) [Example 7]
8 | 8.55 | 7.96 | CN1C(=N)N[C@](C)(c2sc(-c3ccc(-c4nnco4)[nH]3)cc2Cl)CS1(=O)=O [Example 8]
9 | 8.09 | 8.08 | Cc1nnc(-c2ccc(-c3cc(Cl)c([C@]4(C)CS(=O)(=O)N(C)C(=N)N4)s3)[nH]2)o1 [Example 9]
10 | 7.06 | 7.95 | CN1C(=N)N[C@](C)(c2sc(-c3ccc(-c4nnc(C5CC5)o4)[nH]3)cc2Cl)CS1(=O)=O [Example 10]
11 | 7.35 | 6.77 | CN1C(=N)N[C@](C)(c2cc(-c3ccc(-c4nnco4)[nH]3)ccc2F)CS1(=O)=O [Example 11]
12 | 5.93 | 6.44 | CN1C(=N)N[C@](C)(c2sc(-c3cc(-c4ccccc4)on3)cc2Cl)CS1(=O)=O [Example 12]
13 | 6.03 | 6.84 | CN1C(=N)N[C@](C)(c2sc(-c3cc(-c4ccccc4)no3)cc2Cl)CS1(=O)=O [Example 14]
14 | 6.26 | 7.23 | CN1C(=N)N[C@](C)(c2sc(-c3nnc(-c4ccccn4)o3)cc2Cl)CS1(=O)=O [Example 21]
15 | 7.46 | 7.35 | CN1C(=N)N[C@](C)(c2sc(-c3nnc(-c4ccc(C#N)cc4)o3)cc2Cl)CS1(=O)=O [Example 23]
16 | 5.01 | 5.83 | CN1C(=N)N[C@](C)(c2cc(-c3nnc(-c4ccccc4)o3)ccc2F)CS1(=O)=O [Example 24]
17 | 5.59 | 6.23 | CN1C(=N)N[C@](C)(c2cc(-c3nnc(-c4ccc(Cl)cc4)o3)ccc2F)CS1(=O)=O [Example 25]
18 | 5.90 | 6.10 | CN1C(=N)N[C@](C)(c2cc(-c3nnc(-c4cnco4)o3)ccc2F)CS1(=O)=O [Example 26]
19 | 6.17 | 6.55 | CN1C(=N)N[C@](C)(c2sc(-c3nnc(-c4cnccn4)o3)cc2Cl)CS1(=O)=O [Example 27]
20 | 6.25 | 6.48 | CN1C(=N)N[C@](C)(c2sc(-c3nnc(-c4ccncc4)o3)cc2Cl)CS1(=O)=O [Example 28]
21 | 5.98 | 6.16 | CN1C(=N)N[C@](C)(c2sc(-c3nnc(-c4cccnc4)o3)cc2Cl)CS1(=O)=O [Example 29]
22 | 6.59 | 7.01 | CN1C(=N)N[C@](C)(c2sc(-c3nnc(-c4cc5ccccn5n4)o3)cc2Cl)CS1(=O)=O [Example 30]
23 | 5.92 | 5.91 | CN1C(=N)N[C@](C)(c2sc(-c3nnc(-c4cccc(C#N)c4)o3)cc2Cl)CS1(=O)=O [Example 31]
24 | 6.40 | 7.35 | CN1C(=N)N[C@](C)(c2sc(-c3nnc(-c4nccs4)o3)cc2Cl)CS1(=O)=O [Example 32]
25 | 6.06 | 6.46 | CN1C(=N)N[C@](C)(c2sc(-c3nnc(-c4cncs4)o3)cc2Cl)CS1(=O)=O [Example 33]
26 | 6.25 | 6.66 | CN1C(=N)N[C@](C)(c2sc(-c3nnc(-c4cccc5ccnn45)o3)cc2Cl)CS1(=O)=O [Example 34]

Row | pKi [1] | pKi [2] | Compound
27 | 5.62 | 6.35 | CN1C(=N)N[C@](C)(c2sc(-c3nnc(-c4cnn5ccccc45)o3)cc2Cl)CS1(=O)=O [Example 35]
28 | 6.11 | 6.98 | CN1C(=N)N[C@](C)(c2sc(-c3nnc(-c4ncccn4)o3)cc2Cl)CS1(=O)=O [Example 36]
29 | 6.18 | 7.16 | CN1C(=N)N[C@](C)(c2sc(-c3nnc(-c4cscn4)o3)cc2Cl)CS1(=O)=O [Example 37]
30 | 6.59 | 6.91 | CN1C(=N)N[C@](C)(c2sc(-c3nnc(C4Cc5ccccc5C4)o3)cc2Cl)CS1(=O)=O [Example 38]
31 | 5.27 | 5.78 | CN1C(=N)N[C@](C)(c2sc(-c3nnc(-c4cncnc4)o3)cc2Cl)CS1(=O)=O [Example 39]
32 | 6.60 | 6.85 | CN1C(=N)N[C@](C)(c2sc(-c3nnc(-c4cnco4)o3)cc2Cl)CS1(=O)=O [Example 40]
33 | 6.36 | 7.50 | CN1C(=N)N[C@](C)(c2sc(-c3nnc(-c4ncco4)o3)cc2Cl)CS1(=O)=O [Example 41]
34 | 6.03 | 6.85 | CN1C(=N)N[C@](C)(c2sc(-c3nnc(-c4cocn4)o3)cc2Cl)CS1(=O)=O [Example 42]
35 | 6.08 | 6.52 | CN1C(=N)N[C@](C)(c2sc(-c3nnc(-c4ccncn4)o3)cc2Cl)CS1(=O)=O [Example 43]
36 | 5.87 | 6.81 | CN1C(=N)N[C@](C)(c2sc(-c3nnc(-c4ccon4)o3)cc2Cl)CS1(=O)=O [Example 44]
37 | 6.39 | 6.65 | CN1C(=N)N[C@](C)(c2sc(-c3nnc(-c4cnn(C)c4)o3)cc2Cl)CS1(=O)=O [Example 45]
38 | 5.94 | 6.89 | CN1C(=N)N[C@](C)(c2sc(-c3nnc(-c4ccn(C)n4)o3)cc2Cl)CS1(=O)=O [Example 46]
39 | 5.82 | 6.15 | CN1C(=N)N[C@](C)(c2sc(-c3nnc(-c4ccnn4C)o3)cc2Cl)CS1(=O)=O [Example 47]
40 | 6.05 | 6.94 | CN1C(=N)N[C@](C)(c2sc(-c3nnc(C4CC4)o3)cc2Cl)CS1(=O)=O [Example 48]
41 | 5.40 | 6.31 | CN1C(=N)N[C@](C)(c2cc(-c3nnc(-c4nccs4)o3)ccc2F)CS1(=O)=O [Example 49]
42 | 5.00 | 5.37 | CN1C(=N)N[C@](C)(c2cc(-c3nnc(-c4cncs4)o3)ccc2F)CS1(=O)=O [Example 50]
43 | 5.07 | 5.81 | CN1C(=N)N[C@](C)(c2cc(-c3nnc(-c4cscn4)o3)ccc2F)CS1(=O)=O [Example 51]
44 | 5.11 | 5.57 | CN1C(=N)N[C@](C)(c2cc(-c3nnc(C4Cc5ccccc5C4)o3)ccc2F)CS1(=O)=O [Example 52]
45 | 5.47 | 6.73 | CN1C(=N)N[C@](C)(c2cc(-c3nnc(-c4ncco4)o3)ccc2F)CS1(=O)=O [Example 53]
46 | 5.12 | 5.77 | CN1C(=N)N[C@](C)(c2cc(-c3nnc(-c4cocn4)o3)ccc2F)CS1(=O)=O [Example 54]
47 | 5.31 | 6.13 | CN1C(=N)N[C@](C)(c2cc(-c3nnc(-c4ccon4)o3)ccc2F)CS1(=O)=O [Example 55]
48 | 6.45 | 6.05 | CC(C)c1ccc(-c2nnc(-c3cc(Cl)c([C@]4(C)CS(=O)(=O)N(C)C(=N)N4)s3)o2)cc1 [Example 56]
49 | 7.29 | 7.78 | CN1C(=N)N[C@](C)(c2sc(-c3nnc(-c4ccc(Cl)cc4F)o3)cc2Cl)CS1(=O)=O [Example 57]
50 | 6.02 | 5.89 | CN1C(=N)N[C@](C)(c2sc(-c3nnc(-c4ccc5[nH]cnc5c4)o3)cc2Cl)CS1(=O)=O [Example 58]
51 | 6.93 | 7.09 | CN1C(=N)N[C@](C)(c2sc(-c3nnc(-c4ccc(F)c(F)c4)o3)cc2Cl)CS1(=O)=O [Example 59]

Row | Compound | pKi [1] | pKi [2]
52 | CN1C(=N)N[C@](C)(c2cc(-c3cc(-c4ccccc4)on3)ccc2F)CS1(=O)=O [Example 13] | 6.04 | 6.68
53 | CN1C(=N)N[C@](C)(c2cc(-c3cc(-c4ccccc4)on3)ccc2F)CS1(=O)=O [Example 15] | 6.49 | 7.28
